The test concerns the target T1, human GPR14 (Homo sapiens, UniProt Q9UKP6).
T1 construct: expressed in transfected cells
T1 sequence (Q9UKP6 1-389): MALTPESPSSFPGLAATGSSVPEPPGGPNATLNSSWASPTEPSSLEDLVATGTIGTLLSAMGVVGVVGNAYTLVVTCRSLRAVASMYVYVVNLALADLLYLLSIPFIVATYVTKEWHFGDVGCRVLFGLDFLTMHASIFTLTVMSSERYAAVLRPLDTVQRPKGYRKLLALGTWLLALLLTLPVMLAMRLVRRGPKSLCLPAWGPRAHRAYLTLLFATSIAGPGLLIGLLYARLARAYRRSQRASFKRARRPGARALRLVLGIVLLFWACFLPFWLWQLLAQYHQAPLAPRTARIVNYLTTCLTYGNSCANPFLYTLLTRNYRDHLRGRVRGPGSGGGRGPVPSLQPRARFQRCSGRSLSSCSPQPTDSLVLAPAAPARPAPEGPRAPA
The experiment in a line: Inhibition of binding of [125I]-labeled human urotensin II to GPR14 using human GPR14-expressing CHO cell fraction. As to conditions: 1 nM [125I]-labeled human urotensin II; human GPR14-expressing CHO cell membrane fraction; 25° C., 3 hours; read-out: Inhibitory concentration (concentration showing 50% inhibition of human GPR14 binding activity). How it is done:
To 1×10^8 CHO/GPR14 cells were added 10 ml of homogenate buffer (10 mM NaHCO3, 5 mM EDTA, 0.5 mM PMSF, 1 μg/ml pepstatin, 4 μg/ml E64, 20μg/ml leupeptin), and disrupted using Polytron (12,000 rpm, 1 minute). Cell debris solution was centrifuged at 1,000 g for 15 minutes to obtain a supernatant. The supernatant was then […] (in Beckman type 30 rotor, 30,000 rpm, 1 hour), and the resultant precipitant was collected as human GPR14-expressing CHO cell fraction.
Isotope-labeled human urotensin II to be used in experiments for testing inhibition of binding was prepared as described below. 5 μg of human urotensin II (available from Peptide Institute, Inc.) was dissolved in 25 μl of 0.4M sodium acetate (pH 5.6). […]
Human GPR14-expressing CHO cell fraction was diluted in a membrane diluting buffer (20 mM phosphate buffer (pH7.3), 150 mM NaCl, 5 mM MgCl2, 0.1% BSA, 0.05% CHAPS, 0.5 mM PMSF, 0.1 μg/ml Pepstatin, 20 μg/ml Leupeptin, 4 μg/ml E-64) to prepare a solution of cell membrane fraction (protein concentration:3 μg/ml) for assay. […] Next, the filter was washed three times with membrane diluting buffer (0.2 ml), added with 20 μl of Microscinti 20 (Packard), and determined for radioactivity in Topcount (Packard). Specific-binding is calculated by subtracting non-specific binding from the total binding. […]

Regarding `Nc1c2c(nc3ccc(-c4ccsc4)cc13)N(Cc1ccccc1)CC2` [compound 3], the IC50 came to 33 nM.
